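Values below derive from 48-hour exposures of cells grown in 96-well plates, with endpoints linearly interpolated between the two concentrations bracketing the appropriate inhibition level. Here, GI50 denotes the concentration required for 50% inhibition of growth.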 Active and inactive are the calls of the source. No stated cut-off is given here; in the data, active = GI50 up to about 1.1 µM and inactive = higher.
Tests used:
Test in all cases: DTP human tumour cell line panel, 48 h
786-0 = test system: 786-0
A498 = test system: A498
A549 = test system: A549
ACHN = test system: ACHN
BT-549 = test system: BT-549
CAKI-1 = test system: CAKI-1
CCRF-CEM = test system: CCRF-CEM
COLO 205 = test system: COLO 205
DU-145 = test system: DU-145
EKVX = test system: EKVX
HCC 2998 = test system: HCC 2998
HCT-116 = test system: HCT-116
HCT-15 = test system: HCT-15
HL-60 = test system: HL-60
HOP-62 = test system: HOP-62
HT-29 = test system: HT-29
Hs-578T = test system: Hs-578T
IGROV-1 = test system: IGROV-1
K562 = test system: K562
KM12 = test system: KM12
LOX IMVI = test system: LOX IMVI
M14 = test system: M14
MCF7 = test system: MCF7
MDA-MB-231 = test system: MDA-MB-231
MDA-MB-435 = test system: MDA-MB-435
MDA-N = test system: MDA-N
MOLT-4 = test system: MOLT-4
Malme-3M = test system: Malme-3M
NCI-H226 = test system: NCI-H226
NCI-H23 = test system: NCI-H23
NCI-H522 = test system: NCI-H522
NCI/ADR-RES = test system: NCI/ADR-RES
OVCAR-3 = test system: OVCAR-3
OVCAR-4 = test system: OVCAR-4
OVCAR-5 = test system: OVCAR-5
OVCAR-8 = test system: OVCAR-8
PC-3 = test system: PC-3
RPMI-8226 = test system: RPMI-8226
RXF 393 = test system: RXF 393
SF-268 = test system: SF-268
SF-295 = test system: SF-295
SF-539 = test system: SF-539
SK-MEL-2 = test system: SK-MEL-2
SK-MEL-5 = test system: SK-MEL-5
SK-OV-3 = test system: SK-OV-3
SN12C = test system: SN12C
SNB-19 = test system: SNB-19
SNB-75 = test system: SNB-75
SR = test system: SR
SW-620 = test system: SW-620
T47D = test system: T47D
TK-10 = test system: TK-10
U-251 = test system: U-251
UACC-257 = test system: UACC-257
UACC-62 = test system: UACC-62
UO-31 = test system: UO-31
HOP-92 = test system: HOP-92
NCI-H460 = test system: NCI-H460
SK-MEL-28 = test system: SK-MEL-28

CC(=O)N(CCc1ccccc1)C(C#N)c1ccccc1 (stereo unspecified)
GI50 (786-0): > 100 µM (inactive)
GI50 (A498): 91.2 µM (inactive)
GI50 (A549): > 100 µM (inactive)
GI50 (ACHN): > 100 µM (inactive)
GI50 (BT-549): > 100 µM (inactive)
GI50 (CAKI-1): > 100 µM (inactive)
GI50 (CCRF-CEM): > 100 µM (inactive)
GI50 (COLO 205): > 100 µM (inactive)
GI50 (DU-145): > 100 µM (inactive)
GI50 (EKVX): > 100 µM (inactive)
GI50 (HCC 2998): > 100 µM (inactive)
GI50 (HCT-116): > 100 µM (inactive)
GI50 (HCT-15): > 100 µM
GI50 (HL-60): > 100 µM (inactive)
GI50 (HOP-62): > 100 µM (inactive)
GI50 (HT-29): > 100 µM (inactive)
GI50 (Hs-578T): > 100 µM (inactive)
GI50 (IGROV-1): > 100 µM (inactive)
GI50 (K562): > 100 µM (inactive)
GI50 (KM12): > 100 µM (inactive)
GI50 (LOX IMVI): > 100 µM (inactive)
GI50 (M14): > 100 µM (inactive)
GI50 (MCF7): > 100 µM (inactive)
GI50 (MDA-MB-231): > 100 µM (inactive)
GI50 (MDA-MB-435): > 100 µM (inactive)
GI50 (MDA-N): > 100 µM (inactive)
GI50 (MOLT-4): > 100 µM (inactive)
GI50 (Malme-3M): > 100 µM (inactive)
GI50 (NCI-H226): > 100 µM (inactive)
GI50 (NCI-H23): > 100 µM (inactive)
GI50 (NCI-H522): > 100 µM (inactive)
GI50 (NCI/ADR-RES): > 100 µM (inactive)
GI50 (OVCAR-3): 70.1 µM (inactive)
GI50 (OVCAR-4): > 100 µM (inactive)
GI50 (OVCAR-5): > 100 µM (inactive)
GI50 (OVCAR-8): > 100 µM (inactive)
GI50 (PC-3): > 100 µM (inactive)
GI50 (RPMI-8226): > 100 µM (inactive)
GI50 (RXF 393): > 100 µM (inactive)
GI50 (SF-268): > 100 µM (inactive)
GI50 (SF-295): > 100 µM (inactive)
GI50 (SF-539): > 100 µM (inactive)
GI50 (SK-MEL-2): > 100 µM (inactive)
GI50 (SK-MEL-5): > 100 µM (inactive)
GI50 (SK-OV-3): > 100 µM (inactive)
GI50 (SN12C): > 100 µM (inactive)
GI50 (SNB-19): > 100 µM (inactive)
GI50 (SNB-75): 10.5 µM (inactive)
GI50 (SR): > 100 µM (inactive)
GI50 (SW-620): > 100 µM (inactive)
GI50 (T47D): > 100 µM (inactive)
GI50 (TK-10): > 100 µM (inactive)
GI50 (U-251): > 100 µM (inactive)
GI50 (UACC-257): > 100 µM (inactive)
GI50 (UACC-62): > 100 µM (inactive)
GI50 (UO-31): > 100 µM (inactive)

CSc1c(C#N)c2n(c3ccccc13)c1ccccc1[n+]2C
GI50 (786-0): 32.7 µM (inactive)
GI50 (A498): 21 µM (inactive)
GI50 (A549): 24.1 µM (inactive)
GI50 (ACHN): 18.2 µM (inactive)
GI50 (BT-549): 19.7 µM (inactive)
GI50 (CAKI-1): 21.3 µM (inactive)
GI50 (CCRF-CEM): 16 µM (inactive)
GI50 (COLO 205): 15 µM (inactive)
GI50 (DU-145): 29.2 µM (inactive)
GI50 (EKVX): 19.1 µM (inactive)
GI50 (HCC 2998): 27.9 µM (inactive)
GI50 (HCT-116): 6.4 µM (inactive)
GI50 (HCT-15): 33.4 µM
GI50 (HL-60): 20.3 µM (inactive)
GI50 (HOP-62): 23.1 µM (inactive)
GI50 (HOP-92): 33.5 µM (inactive)
GI50 (HT-29): 21 µM (inactive)
GI50 (Hs-578T): 30.5 µM (inactive)
GI50 (IGROV-1): 33.2 µM (inactive)
GI50 (KM12): 28.5 µM (inactive)
GI50 (LOX IMVI): 33.1 µM (inactive)
GI50 (M14): 29.3 µM (inactive)
GI50 (MCF7): 35.6 µM (inactive)
GI50 (MDA-MB-231): 20.7 µM (inactive)
GI50 (MDA-MB-435): 20.9 µM (inactive)
GI50 (MDA-N): 26.2 µM (inactive)
GI50 (MOLT-4): 12.9 µM (inactive)
GI50 (Malme-3M): 16 µM (inactive)
GI50 (NCI-H23): 25.5 µM (inactive)
GI50 (NCI-H460): 26.4 µM (inactive)
GI50 (NCI-H522): 12.3 µM (inactive)
GI50 (NCI/ADR-RES): 25.1 µM (inactive)
GI50 (OVCAR-3): 37.4 µM (inactive)
GI50 (OVCAR-4): 59.3 µM (inactive)
GI50 (OVCAR-5): 31.4 µM (inactive)
GI50 (OVCAR-8): 24 µM (inactive)
GI50 (PC-3): 26.7 µM (inactive)
GI50 (RPMI-8226): 17.3 µM (inactive)
GI50 (SF-268): 28.5 µM (inactive)
GI50 (SF-295): 34 µM (inactive)
GI50 (SF-539): 22.4 µM (inactive)
GI50 (SK-MEL-28): 23.9 µM (inactive)
GI50 (SK-MEL-2): 20.3 µM (inactive)
GI50 (SK-MEL-5): 11.9 µM (inactive)
GI50 (SN12C): 18.2 µM (inactive)
GI50 (SNB-19): > 10 µM (inactive)
GI50 (SNB-75): 37.2 µM (inactive)
GI50 (SR): > 100 µM (inactive)
GI50 (SW-620): 23.8 µM (inactive)
GI50 (T47D): 30.1 µM (inactive)
GI50 (TK-10): 21.1 µM (inactive)
GI50 (U-251): 24.6 µM (inactive)
GI50 (UACC-257): 19.7 µM (inactive)
GI50 (UACC-62): 16.9 µM (inactive)
GI50 (UO-31): 18.5 µM (inactive)
